Test results reported in patent US12209079B2 (GENERAL INCORPORATED ASSOCIATION PHARMA VALLEY PROJECT …, priority 2017, dated 2025).
Where a name gives a salt, the structure may show the parent alone.

Columns and labels:
TDO in A172 cells = target: T1, TDO in A172 cells (Homo sapiens, UniProt P48775); experiment: TDO cell-based assay, kynurenine production in A172 cells; conditions: A 172; final concentration of the compound 10 μM; rate relative to culture without compound
T1 construct: endogenous in cells; host or cells: A172 cells
Experimental: A172 cells (3.0×10^5 cells/mL) suspended in a culture medium for assay (PRMI-1640; Wako 186-02155, 5% FBS, 50 units/mL penicillin, and 50 μg/mL streptomycin) were inoculated at 100 μL/well to a transparent 96-well flat-bottomed plate and cultured at 37° C. for 24 hours in 5% CO2. The culture medium was removed from the cells thus cultured. A culture medium for assay was added at 80 μL/well, and further, a compound solution was added at 10 μL/well. The cells were preincubated for 1 hour. Then, the whole amount was brought to 100 μL/well by the addition of 10 μL/well of a 5 mM aqueous tryptophan solution (final concentration of L-tryptophan: 524 μM), and the cells were cultured for 24 hours. After the culture, absorbance was measured at 460 nm using SpectraMax MSSK (Molecular Devices, LLC) (background measurement). After the measurement, a kynurenine quantification reagent (prepared with 7% [v/v] aqueous trichloroacetic acid solution and a solution of 2% [w/v] p-dimethylbenzaldehyde in acetic acid at 2:5 [v/v]) was added at 200 μL/well and reacted for 5 minutes, followed by the measurement of absorbance at 460 nm again. The rate of kynurenine production was calculated according to the following expression. Rate of kynurenine production (%) for each compound in the case of using A172 cells={(Absorbance at 460 nm in the tryptophan-containing culture medium comprising the A172 cells and the solution of the compound of the present invention−Absorbance of the background)/(Absorbance at 460 nm in the tryptophan-containing culture medium without the addition of the compound solution−Absorbance of the background)}×100

[1] = target: rhTDO (recombinant human TDO) (Homo sapiens, UniProt P48775); experiment: Enzyme assay using rhTDO (rate of kynurenine production); type: biochemical; conditions: 2 h; final concentration of the compound 10 μM; rate relative to reaction without compound; read-out: rhTDO-mediated kynurenine production
Experimental: 4 μL of a compound solution was added to 176 μL of a rhTDO reaction solution (0.5 M potassium phosphate buffer (20 μL), 0.2 M ascorbic acid (20 μL), 0.5 mM methylene blue (4 μL), 10 mg/mL catalase (2 μL), H2O (128 μL), and rhTDO (2 μL)). The mixture was pipetted and preincubated at 37° C. for 10 minutes. Then, the whole amount was brought to 200 μL by the addition of 20 μL of a 20 mM aqueous tryptophan solution, and the mixture was pipetted again and reacted at 37° C. for 120 minutes. After the reaction, the enzymatic reaction was terminated by the addition of 40 μL of a 30% [v/v] aqueous trichloroacetic acid solution to the reaction solution. The mixture was well stirred by pipetting and heated at 50° C. for 15 minutes so that N-formylkynurenine was converted to kynurenine. The reaction solution thus heated was centrifuged (15,000 rpm, 5 min, 24° C.), and 150 μL of the supernatant was transferred to a transparent 96-well flat-bottomed plate, followed by the measurement of absorbance at 490 nm using SpectraMax M5 SK (background measurement). After the measurement, a solution of 2% [w/v] p-dimethylbenzaldehyde in acetic acid was added at 150 μL/well and reacted for 5 minutes, followed by the measurement of absorbance at 490 nm again. The rate of kynurenine production was calculated according to the following expression. Rate of kynurenine production (%) for each compound in the case of using rhTDO={(Absorbance at 490 nm in the tryptophan-containing aqueous solution comprising rhTDO and the compound of the present invention−Absorbance of the background)/(Absorbance at 490 nm in the tryptophan-containing aqueous solution without the addition of the compound solution−Absorbance of the background)}×100 IDO Cell-Based Assay Protocol

IDO in A431 cells = target: T2, IDO in A431 cells (Homo sapiens, UniProt P14902); experiment: IDO cell-based assay, kynurenine production in IFN-γ stimulated A431 cells; conditions: A-431, 24 h; final concentration of the compound 10 μM; rate relative to culture without compound
T2 construct: endogenous in cells; host or cells: A431 cells, IFN-γ stimulated
Experimental: A431 cells (3.0×10^5 cells/mL) suspended in a culture medium for assay (D-MEM; Wako 040-30095, 5% FBS, 50 units/mL penicillin, 50 μg/mL streptomycin, and 2 mM L-glutamine) were inoculated at 100 μL/well to a transparent 96-well flat-bottomed plate and cultured at 37° C. for 24 hours in 5% CO2. The culture medium was removed from the cells thus cultured. A tryptophan-containing culture medium (culture medium for assay supplemented with 178 μM L-tryptophan) was added at 80 μL/well, and further, a compound solution was added at 10 μL/well. The cells were preincubated for 1 hour. Then, the whole amount was brought to 100 μL/well by the addition of 10 μL/well of IFN-γ diluted into 100 ng/mL with a tryptophan-containing culture medium, and the cells were cultured for 24 hours. After the culture, absorbance was measured at 460 nm using SpectraMax MSSK (Molecular Devices, LLC) (background measurement). After the measurement, a kynurenine quantification reagent (prepared with 7% [v/v] aqueous trichloroacetic acid solution and a solution of 2% [w/v] p-dimethylbenzaldehyde in acetic acid at 2:5 [v/v]) was added at 200 μL/well and reacted for 5 minutes, followed by the measurement of absorbance at 460 nm again. The rate of kynurenine production was calculated according to the following expression. Rate of kynurenine production (%) for each compound in the case of using A431 cells={(Absorbance at 460 nm in the tryptophan-containing culture medium comprising the A431 cells and the solution of the compound of the present invention−Absorbance of the background)/(Absorbance at 460 nm in the tryptophan-containing culture medium without the addition of the compound solution−Absorbance of the background)}×100 TDO Cell-Based Assay Protocol

[2] = target: rhIDO (recombinant human IDO) (Homo sapiens, UniProt P14902); experiment: Enzyme assay using rhIDO (rate of kynurenine production); type: biochemical; conditions: 2 h; final concentration of the compound 10 μM; rate relative to reaction without compound; read-out: rhIDO-mediated kynurenine production
Experimental: Enzyme Assay Protocol Using rhIDO (Recombinant Human IDO)
4 μL of a compound solution was added to 176 μL of a rhIDO reaction solution (0.5 M potassium phosphate buffer (20 μL), 0.2 M ascorbic acid (20 μL), 0.5 mM methylene blue (4 μL), 10 mg/mL catalase (2 μL), H2O (128 μL), and rhIDO (2 μL)). The mixture was pipetted and preincubated at 37° C. for 10 minutes. Then, the whole amount was brought to 200 μL by the addition of 20 μL of a 2 mM aqueous tryptophan solution, and the mixture was pipetted again and reacted at 37° C. for 120 minutes. After the reaction, the enzymatic reaction was terminated by the addition of 40 μL of a 30% [v/v] aqueous trichloroacetic acid solution to the reaction solution. The mixture was well stirred by pipetting and heated at 50° C. for 15 minutes so that N-formylkynurenine was converted to kynurenine. The reaction solution thus heated was centrifuged (15,000 rpm, 5 min, 24° C.), and 150 μL of the supernatant was transferred to a transparent 96-well flat-bottomed plate, followed by the measurement of absorbance at 490 nm using SpectraMax MSSK (background measurement). After the measurement, a solution of 2% [w/v] p-dimethylbenzaldehyde in acetic acid was added at 150 μL/well and reacted for 5 minutes, followed by the measurement of absorbance at 490 nm again. The rate of kynurenine production was calculated according to the following expression. Rate of kynurenine production (%) for each compound in the case of using rhIDO={(Absorbance at 490 nm in the tryptophan-containing aqueous solution comprising rhIDO and the compound of the present invention−Absorbance of the background)/(Absorbance at 490 nm in the tryptophan-containing aqueous solution without the addition of the compound solution−Absorbance of the background)}×100 Enzyme Assay Protocol Using rhTDO (Recombinant Human TDO)

T2 sequence (P14902 whole entry): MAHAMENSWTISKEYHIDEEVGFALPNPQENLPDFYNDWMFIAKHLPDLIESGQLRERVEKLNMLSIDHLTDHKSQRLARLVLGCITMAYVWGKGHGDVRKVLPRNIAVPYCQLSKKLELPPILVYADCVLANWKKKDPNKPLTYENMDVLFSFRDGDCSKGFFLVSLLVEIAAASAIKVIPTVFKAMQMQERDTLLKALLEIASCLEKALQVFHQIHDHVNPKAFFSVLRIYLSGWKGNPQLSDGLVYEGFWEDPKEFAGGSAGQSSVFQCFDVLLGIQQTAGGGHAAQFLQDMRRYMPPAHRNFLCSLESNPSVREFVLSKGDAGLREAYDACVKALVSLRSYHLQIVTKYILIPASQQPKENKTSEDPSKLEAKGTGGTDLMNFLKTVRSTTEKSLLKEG
rhIDO (recombinant human IDO), sequence (P14902 whole entry): as above
rhTDO (recombinant human TDO), sequence (P48775 whole entry): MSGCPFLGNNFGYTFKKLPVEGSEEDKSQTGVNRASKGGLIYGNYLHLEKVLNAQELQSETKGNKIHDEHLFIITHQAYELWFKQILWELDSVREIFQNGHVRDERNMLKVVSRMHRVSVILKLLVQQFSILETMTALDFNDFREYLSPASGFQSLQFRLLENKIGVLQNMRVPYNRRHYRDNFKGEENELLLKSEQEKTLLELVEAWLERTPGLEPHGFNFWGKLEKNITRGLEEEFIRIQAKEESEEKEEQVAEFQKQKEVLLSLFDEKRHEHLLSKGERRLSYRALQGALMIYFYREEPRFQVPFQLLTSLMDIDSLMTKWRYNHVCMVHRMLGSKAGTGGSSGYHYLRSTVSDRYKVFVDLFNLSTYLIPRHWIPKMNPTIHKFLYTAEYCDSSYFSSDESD
T1 sequence (P48775 whole entry): as above

remaining activity at 10 µM (TDO in A172 cells) [%]	remaining activity at 10 µM [1] [%]	remaining activity at 10 µM (IDO in A431 cells) [%]	remaining activity at 10 µM [2] [%]	Compound
11	7	14	29	Fc1ccc(CSC2=NCN(CC3CCCCC3)CN2)c(CSC2=NCN(CC3CCCCC3)CN2)c1 [Compound 121, 6,6′-(((4-Fluoro-1,2-phenylene)bis(methylene))bis(sulfanediyl))bis(3-(cyclohexylmethyl)-1,2,3,4-tetrahydro-1,3,5-triazine)]
4	1	1	-3	NC(=O)SCc1ccccc1CS/C(N)=N/c1ccc(F)c(Cl)c1 [Compound 59, (E)-S-(2-(((N′-(3-Chloro-4-fluorophenyl)carbamimidoyl)thio)methyl)benzyl) carbamothioate hydrobromide]
3	10	13	-2	N/C(=N\c1cccc(Br)c1)SCc1cc(Cl)c(Cl)cc1CS/C(N)=N/c1cccc(Br)c1 [Compound 136, (4,5-Dichloro-1,2-phenylene)bis(methylene) (E,E)-bis(N′-(3-bromophenyl)carbamimidothioate) dihydrobromide]
18	19	6	15	Fc1ccc(CN2CN=C(SCc3ccc(Br)cc3CSC3=NCN(Cc4ccc(F)c(Cl)c4)CN3)NC2)cc1Cl [Compound 144, 6,6′-(((4-Bromo-1,2-phenylene)bis(methylene))bis(sulfanediyl))bis(3-(3-chloro-4-fluorobenzyl)-1,2,3,4-tetrahydro-1,3,5-triazine)]
-3	56	7	33	COc1ccc(CN2CN=C(SCc3ccccc3CSC3=NCN(Cc4ccc(OC)cc4OC)CN3)NC2)c(OC)c1 [Compound 27, 1,2-bis(((5-(2,4-dimethoxybenzyl)-1,4,5,6-tetrahydro-1,3,5-triazin-2-yl)thio)methyl)benzene]
113	84	85	69	N=C(N)SCc1nc2ccccc2nc1CSC(=N)N [Compound 5, quinoxaline-2,3-dilylbis(methylene) dicarbamimidothioate dihydrobromide]
78	30	7	6	N=C(N)SCc1ccc2ccccc2c1CSC(=N)N [Compound 3, naphthalene-1,2-diylbis(methylene) dicarbamimidothioate dihydrobromide]

Compound	remaining activity at 10 µM (TDO in A172 cells) [%]	remaining activity at 10 µM [1] [%]	remaining activity at 10 µM (IDO in A431 cells) [%]	remaining activity at 10 µM [2] [%]
N=C(N)SCc1ccc(C(F)(F)F)cc1CSC(=N)N [Compound 46, dihydrobromide]	24	14	10	3
N=C(N)[Se]Cc1ccc(Cl)cc1C[Se]C(=N)N [Compound 109, (4-Chloro-1,2-phenylene)bis(methylene) dicarbamimidoselenoate dihydrobromide]	63	57	19	61
N/C(=N\c1ccc(F)cc1)SCc1cc(Cl)c(Cl)cc1CS/C(N)=N/c1ccc(F)cc1 [Compound 137, (4,5-Dichloro-1,2-phenylene)bis(methylene) (E,E)-bis(N′-(4-fluorophenyl)carbamimidothioate) dihydrobromide]	2	9	8	-3
COc1ccc(CCN2CN=C(SCc3ccc(Br)cc3CSC3=NCN(CCc4ccc(OC)cc4)CN3)NC2)cc1 [Compound 148, 6,6′-(((4-Bromo-1,2-phenylene)bis(methylene))bis(sulfanediyl))bis(3-(4-methoxyphenethyl)-1,2,3,4-tetrahydro-1,3,5-triazine)]	18	8	7	13
N#Cc1ccc(CNC(=O)c2cc(Br)ccc2C[Se]C(=N)N)cc1 [Compound 110, 4-Bromo-2-((4-cyanobenzyl)carbamoyl)benzyl carbamimidoselenoate hydrobromide]	38	59	13	61
N=C(N)SCc1cc(Br)ccc1C(=O)NCc1ccc(Cl)c(Cl)c1 [Compound 94, 5-Bromo-2-((3,4-dichlorobenzyl)carbamoyl)benzyl carbamimidothioate hydrobromide]	59	15	158	80
